# Target: KRasG12C (M1-K169, biotinylated on the N-terminus) (Homo sapiens (Human), UniProt P01116, G12C)
# Test: Covalent competition assay: scintillation proximity assay (SPA) quantifying covalent modification of KRASG12C
# Type: binding
# Settings: competition with radiolabeled covalent probe (Compound B/Compound A), 2 hours incubation, 10 nM KRasG12C
# Outline: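 Scintillation proximity readout after streptavidin bead capture (30 min) of biotinylated KRasG12C(M1-K169):GDP, 10 nM final, which was covalently labelled over 2 h by 25 nM radio-probe plus 475 nM cold probe unless blocked by compound.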
row,Compound,IC50 [nM]
1,"C=CC(=O)N1CC2(CC(n3nc(N4CCn5nccc5C4(C)C)c(-c4c(Cl)c(C)cc5[nH]ncc45)c3C)C2)C1 (single isomer, unassigned) [Example 101a, 1-(6-(4-(5-chloro-6-methyl-1H-indazol-4-yl)-3-(4,4-dimethyl-6,7-dihydropyrazolo[1,5-a]pyrazin-5(4H)-yl)-5-methyl-1H-pyrazol-1-yl)-2-azaspiro[3.3]heptan-2-yl)prop-2-en-1-one]",> 50000
2,"C=CC(=O)N1CC2(CC(n3nc(N4CCn5nccc5C4(C)C)c(-c4c(Cl)c(C)cc5[nH]ncc45)c3C)C2)C1 (single isomer, unassigned) [Example 101b, 1-(6-(4-(5-chloro-6-methyl-1H-indazol-4-yl)-3-(4,4-dimethyl-6,7-dihydropyrazolo[1,5-a]pyrazin-5(4H)-yl)-5-methyl-1H-pyrazol-1-yl)-2-azaspiro[3.3]heptan-2-yl)prop-2-en-1-one]",103
3,"C=CC(=O)N1CC2(CC(n3nc(N4CCC(N5C[C@H](OC)[C@H](OC)C5)CC4(C)C)c(-c4c(Cl)c(C)cc5[nH]ncc45)c3C)C2)C1 (single isomer, unassigned) [Example 102a]",> 5000
4,"C=CC(=O)N1CC2(CC(n3nc(N4CCC(N5C[C@H](OC)[C@H](OC)C5)CC4(C)C)c(-c4c(Cl)c(C)cc5[nH]ncc45)c3C)C2)C1 (single isomer, unassigned) [Example 102b]",23
5,"C=CC(=O)N1CC2(CC(n3nc(N4CCCCC4(C)C)c(-c4c(Cl)c(C)cc5[nH]ncc45)c3C)C2)C1 (single isomer, unassigned) [Example 103a, 1-(6-(4-(5-chloro-6-methyl-1H-indazol-4-yl)-3-(2,2-dimethylpiperidin-1-yl)-5-methyl-1H-pyrazol-1-yl)-2-azaspiro[3.3]heptan-2-yl)prop-2-en-1-one]",> 5000
6,"C=CC(=O)N1CC2(CC(n3nc(N4CCCCC4(C)C)c(-c4c(Cl)c(C)cc5[nH]ncc45)c3C)C2)C1 (single isomer, unassigned) [Example 103b, 1-(6-(4-(5-chloro-6-methyl-1H-indazol-4-yl)-3-(2,2-dimethylpiperidin-1-yl)-5-methyl-1H-pyrazol-1-yl)-2-azaspiro[3.3]heptan-2-yl)prop-2-en-1-one]",315
7,"C=CC(=O)N1CC2(CC(n3nc(N4C[C@H](C)N(C5COC5)CC4(C)C)c(-c4c(Cl)c(Cl)cc5[nH]ncc45)c3C)C2)C1 (single isomer, unassigned) [Example 104a]",4440
8,"C=CC(=O)N1CC2(CC(n3nc(N4C[C@H](C)N(C5COC5)CC4(C)C)c(-c4c(Cl)c(Cl)cc5[nH]ncc45)c3C)C2)C1 (single isomer, unassigned) [Example 104b]",27
9,"C=CC(=O)N1CC2(CC(n3nc(N4CCN(C[C@@H]5COCCO5)C[C@@]4(C)C(F)F)c(-c4c(Cl)c(Cl)cc5[nH]ncc45)c3C)C2)C1 (single isomer, unassigned) [Example 105a]",> 5000
10,"C=CC(=O)N1CC2(CC(n3nc(N4CCN(C[C@@H]5COCCO5)C[C@@]4(C)C(F)F)c(-c4c(Cl)c(Cl)cc5[nH]ncc45)c3C)C2)C1 (single isomer, unassigned) [Example 105b]",19
11,"C=CC(=O)N1CC2(CC(n3nc(N4CCN(C5CCOCC5)C[C@@]4(C)C(F)F)c(-c4c(Cl)c(Cl)cc5[nH]ncc45)c3C)C2)C1 (single isomer, unassigned) [Example 106a]",> 5000
12,"C=CC(=O)N1CC2(CC(n3nc(N4CCN(C5CCOCC5)C[C@@]4(C)C(F)F)c(-c4c(Cl)c(Cl)cc5[nH]ncc45)c3C)C2)C1 (single isomer, unassigned) [Example 106b]",14
13,"C=CC(=O)N1CC2(CC(n3nc(N4CCN(C[C@@H]5COCCO5)C[C@@]4(CC)C(F)F)c(-c4c(Cl)c(C)cc5[nH]ncc45)c3C)C2)C1 (single isomer, unassigned) [Example 107a]",> 5000
14,"C=CC(=O)N1CC2(CC(n3nc(N4CCN(C[C@@H]5COCCO5)C[C@@]4(CC)C(F)F)c(-c4c(Cl)c(C)cc5[nH]ncc45)c3C)C2)C1 (single isomer, unassigned) [Example 107b]",10

# Reference: patent publication US20240317721A1, “PYRAZOLYL DERIVATIVES AS INHIBITORS OF THE KRAS MUTANT PROTEIN” (NOVARTIS AG, priority 2021, published 2024)
